Results on three compounds are retold here after US20220175926A1, “TARGETED SYNERGISTIC CANCER IMMUNOTHERAPY” (The Brigham and Women's Hospital, Inc., priority 2019, published 2022).

Data set [1] can be described thus: Loading efficiency in liposomes. As to conditions: sonosensitizer incubated with preformed liposomes at room temperature. It is filed as physicochemical. Here is the method:
The lipid suspension was extruded through the 100 nm polycarbonate membrane using the extruder (Avanti, AL, USA) to obtain blank liposomes. Ethanol was removed by dialysis overnight at 4° C. To load the sonosensitizer in liposomes, ICG was firstly conjugated to a lipid tail such as DOPE before incubation with preformed blank liposomes at room temperature for 30 min. Unloaded ICG was removed by using the PD-10 column (GE Healthcare). To load PAPC (Avanti, AL, USA) in liposomes, the proper amount of PAPC in DMSO stock solution was incubated with liposomes containing ICG at room temperature for 30 min and the obtained formulation was used without further purification. To load R848 (Sigma, MO, USA) in liposomes, blank liposomes were firstly prepared in 250 mM ammonium sulfate, and the external ammonium sulfate was exchanged to 10% sucrose by dialysis overnight at 4° C., followed by incubation with R848 at 55° C. for 30 min and removal of unloaded R848 by dialysis overnight at 4° C. To measure the size of liposomes, 10 ul of liposomes were diluted to 2 mL with PBS and the size was measured with Zeta sizer. To measure the amount of ICG, 10 ul liposomes were added with 190 ul DMSO and the fluorescence was measured at Ex=780 nm, Em=810 nm.

Data set [2] in a line: Pharmacokinetic study after intravenous injection. Type of data set: in vivo. Conditions: C57BL/6 mice. As to the method:
C57BL/6 mice were intravenously injected with free ICG or lipo-ICG (liposome encapsulated ICG). At predetermined time points (0.25, 1, 3, 7, and 24 h post injection), 50 ul blood were collected in Microvette 500 Z-gel tubes by submandibular bleeding and kept on ice. The samples were centrifuged at 10,000 g for 5 min at room temperature, and 10 ul of the serum were diluted to 100 ul with PBS and the fluorescence intensity was measured at Ex=780, Em=810 nm.

Another data set deals with RAW 264.7 macrophages. Nature of the data set: TNFα secretion from RAW 264.7 macrophages (ELISA). It is filed as cell-based, mouse. Conditions: RAW264.7 macrophages; compared with no treatment control. For orientation: In an ELISA, binding on a coated surface is turned into a signal by an enzyme label.
The subject of another data set is CT26. The experiment in a line: Transwell co-culture assay, viability of CT26 tumor cells cocultured with RAW 264.7 macrophages (XTT). Type of data set: cell-based. Conditions: single component or component removed. Here is the method:
RAW 264.7 macrophages were seeded in a Transwell insert at a density of 200,000 cells per insert (Corning, N.Y., USA) and CT26 (ATCC, VA, USA) were seeded in the lower compartment at a density of 200,000 cells per well, which was separated by a porous membrane (well area: 0.3 cm^2, insert size: 6.5 mm). Cells were incubated with […] and/or 20 ng/mL ICG for 24 h. Ultrasound irradiation (frequency: 1 MHz; duty cycle: 50%; power: 2 W/cm^2) was performed for 5 min. The viability of tumor cells after treatment with different formulations in the absence or presence of ultrasound was determined by XTT Cell Proliferation Assay Kit (ATCC, VA, USA) following the manufacturer's instructions.
For orientation: Formazan colour is commonly taken as a measure of viable cells.

For a further data set, the system named is iBMDM. Nature of the data set: IL-1β secretion from iBMDM (ELISA). It is filed as cell-based, mouse. As to the method: RAW 264.7 macrophages (ATCC, VA, USA) were seeded in a 96 well plate at a density of 20,000 cells per well. Cells were incubated with 10 ng/mL R848 (Sigma, MO, USA) and/or 20 ng/mL ICG (Sigma, MO, USA) for 24 h. Ultrasound irradiation (frequency: 1 MHz; duty cycle: 50%; power: 2 W/cm^2) was applied to these cells for up to 5 min. TNFα secretion was analyzed by mouse TNFα DuoSet ELISA (R&D Systems, MN, USA) following the manufacturer's instructions. To measure IL-1β secretion, immortal bone marrow derived macrophages or iBMDM (BCH, MA, USA)) were seeded in a 96 well plate at a density of 20,000 cells per well. Cells were incubated with 10 ng/mL PAPC (Avanti, AL, USA) and/or 20 ng/mL ICG for 24 h. Ultrasound irradiation (frequency: 1 MHz; duty cycle: 50%; power: 2 W/cm^2) was applied to these cells for up to 5 min. IL-1β secretion was analyzed by mouse IL-1β ELISA (Invitrogen, CA, USA) following the manufacturer's instructions. In some experiments, cells were also treated with 0.5, 1, or 2 mM of ROS scavenger N-acetyl-cysteine (Sigma, MO, USA) right before treatment with ultrasound.

`CC1(C)C(/C=C/C=C/C=C/C=C2\N(CCCCS(=O)(=O)O)c3ccc4ccccc4c3C2(C)C)=[N+](CCCCS(=O)(=O)[O-])c2ccc3ccccc3c21` [ICG, indocyanine green]: the loading efficiency result in data set [1] is “less than 20%”. In addition, the “detectability of ICG in serum after injection” value in data set [2] is “not detectable within a few minutes after injection”. Besides, in the data set on RAW 264.7 macrophages, the TNFα release result is on record as “didn't induce significant TNFα release”. In addition, the CT26 cell viability result in the data set with CT26 is “modest decrease of CT26 cell viability”. For the same compound, the IL-1β release result with iBMDM was “didn't induce any detectable level of IL-1β”.
With `CC(=O)N[C@@H](CS)C(=O)O` [NAC, N-acetyl-cysteine], the “IL-1β release on ROS depletion” value with iBMDM (ROS scavenger added to PAPC+ICG+US) is recorded as “dose dependent reduction of IL-1β”.
Turning to `CCCCC/C=C\C/C=C\C/C=C\C/C=C\CCCC(=O)O[C@H](COC(=O)CCCCCCCCCCCCCCC)COP(=O)([O-])OCC[N+](C)(C)C` [PAPC, 1-palmitoyl-2-arachidonoyl-sn-glycero-3-phosphocholine], the IL-1β release result in the data set on iBMDM is given as “didn't induce any detectable level of IL-1β”.
